For one assay, the system named is SK-OV-3 cells. The assay is described as follows: In vitro cell viability, ovarian cancer SK-OV-3. In kind it is cell-based, human. Conditions: * at concentration of 2 μM for 72 h; Table 3B. The method, then:
The inhibitory effects of the various synthesized GHRH antagonists were tested in cell proliferation assays in various human cancer cell lines including stomach cancer (KATOIII, N87), colon cancer (HT-29), urothelial cancer (J82, RT4), pancreatic cancer (PANC-1, CFPAC-1), prostatic cancer (PC3), breast cancer (MX-1, HCC1806), ovarian cancer (SK-OV-3, OVCAR-3) and lung cancer (HCC827, H460).
Cell culture. Human cancer cell lines including pancreatic (PANC-1 and CFPAC-1), lung (HCC827 and H460), stomach (NCI-N87 and KATOIII), urothelial (J82, RT4), prostatic (PC3), breast (MX-1 and HCC 1806), colorectal (HT-29), and ovarian (SK-OV-3 and OVCAR-3) were obtained from the American Type Culture Collection (ATCC) and cultured at 37° C. in a humidified 95% air/5% CO2 atmosphere in the medium recommended by ATCC.
In vitro cell viability. Cell viability was analyzed as follows: cancer cells including pancreatic (PANC-1 and CFPAC-1), lung (HCC827 and H460), stomach (NCI-N87 and KATOIII), urothelial (J82, RT4), prostatic (PC3) and breast (MX-1 and HCC 1806), colorectal (HT-29) and ovarian (SK-OV-3 and OVCAR-3) were grown on 96 well plates to ˜60% confluence, the cells were starved for 24 h in culture medium containing 0.5% FBS. […] Cell viability was measured using CellTiter 96 aqueous one solution kit (Promega). […]

Assay [1] relates to C57Bl/6J mice treated with bleomycin. Nature of the assay: Bleomycin lung injury model, lung histopathology scores (inflammation, modified Ashcroft fibrosis). Type of assay: in vivo, mouse. The method, then:
Experimental animals. 8-week old C57Bl/6J male mice (The Jackson Laboratory, Bar Harbor, ME) were used in these experiments. Mice weighed about 26 grams at the start. Mice were randomly allocated to the experimental groups and housed in identical filter top cages in a ventilated rack. Mice were exposed to a 12-hour light/dark cycle and had free access to standard laboratory chow and water.
Bleomycin and GHRH-R antagonist treatment. Mice were treated with 0.8 units of bleomycin (Bleomycin for Injection USP, Hospira, Lake Forest, IL) intraperitoneally (IP) on days 1, 3, 7, 10, 14 and 21 (Collins S, Chan-Li Y, Oh M, Vigeland C, Limjunyawong N, Mitzner W, Powell J D, Horton M R (2016). JCI Insight 1(4):1-13). Mice (randomly assigned) were simultaneously treated subcutaneously (sc) with MIA-602 (5 μg/day) or its vehicle (100 μL/day). MIA-602 was dissolved in DMSO (ACS grade; Sigma-Aldrich) and diluted 1:500 in normal saline for daily sc injection on days 0-21.
Tissue preparations. Mice were killed by CO2 inhalation before any treatment, or on days 14 or 28 for micro-CT scans of lungs and harvesting of lung tissue (Vande Velde G, Poelmans J, De Langhe E, Hillen A, Vanoirbeek J, Himmelreich U, Lories R (2016). Dis Model Mech 9:91). The right mainstem bronchus was ligated and the right lung removed and frozen at −80° C. for hydroxyproline (HP) assays. The left lung was filled with 10% buffered formalin at ˜25 cm H2O pressure, the bronchus ligated, and the lung fixed in formalin. Fixed lungs were embedded in wax and 5 μm sections stained with hematoxylin and eosin (H&E) or Masson's trichrome stain.
Lung histopathology. Fibrosis was quantified in trichrome-stained sections using a modification of the Ashcroft score that describes grades of fibrosis. Inflammation in lung tissue was quantified in H&E stained sections (Hubner R, Gitter W, El Mokhtari N, Mathiak M, Both M, Bolte H, Freitag-Wolf S, Bewig B (2008). Biotechniques 44:507-517).
Data analysis. Data are reported as arithmetic means±SEM or SD as indicated. […]

[2] abbreviates: day 28, bleomycin-treated mice, MIA-602 5 μg/day sc days 1-21.

Molecules are shown by their SMILES. Non-standard residues stand in square brackets, D forms with d. Residues, ends and D or L forms follow the SMILES beside them. *: point of attachment. Phe(F5) = N[C@@H](Cc1c(F)c(F)c(F)c(F)c1F)C(=O)O; hArg = N=C(N)NCCCC[C@H](N)C(=O)O; 12Ado = NCCCCCCCCCCCC(=O)O; Nle = CCCC[C@H](N)C(=O)O; Orn = NCCC[C@H](N)C(=O)O; Abu = CC[C@H](N)C(=O)O; PhAc = O=C(Cc1ccccc1)*

Take `CCCC[C@H](NC(=O)[C@@H](NC(=O)[C@H](CC(=O)O)NC(=O)[C@H](CCC(N)=O)NC(=O)[C@H](CC(C)C)NC(=O)[C@H](CC(C)C)NC(=O)[C@H](CCCN)NC(=O)[C@H](Cc1c[nH]cn1)NC(=O)[C@H](C)NC(=O)[C@H](CO)NC(=O)[C@H](CC(C)C)NC(=O)[C@H](CCC(N)=O)NC(=O)[C@H](CC)NC(=O)[C@H](CC(C)C)NC(=O)[C@@H](NC(=O)[C@H](CCCN)NC(=O)[C@H](Cc1c[nH]cn1)NC(=O)[C@H](Cc1ccc(OC)cc1)NC(=O)[C@H](CCCCNC(=N)N)NC(=O)[C@H](C)NC(=O)[C@@H](NC(=O)[C@H](Cc1c(F)c(F)c(F)c(F)c1F)NC(=O)[C@@H](NC(=O)[C@H](C)NC(=O)[C@H](CC(=O)O)NC(=O)[C@@H](CCCNC(=N)N)NC(=O)[C@H](Cc1ccc(O)cc1)NC(=O)CCCCCCCCCCCNC(=O)Cc1ccccc1)[C@@H](C)CC)[C@@H](C)O)C(C)C)[C@@H](C)CC)C(=O)N[C@H](CCCNC(=N)N)C(=O)N[C@@H](CCCCNC(=N)N)C(N)=O` [MIA-602, PhAC-Ada, Tyr D-Arg, Asp, Ala, Ile, 5FPhe, Thr, Ala, Har, Tyr(Me), His, Orn, Val, Leu, Abu, Gin, Leu, Ser, Ala, His, Orn, Leu, Leu, Gin, Asp, Ile, Nle, D-Arg, Har NH2, reference compound] ({PhAc-12Ado}-Y[dR]DAI[Phe(F5)]TA[hArg]Y(Me)H[Orn]VL[Abu]QLSAH[Orn]LLQDI[Nle][dR][hArg]-NH2): the “In vitro relative inhibitory potency in comparison to MIA-602, SKOV-3” value in the assay with SK-OV-3 cells amounted to 1. The “Lung inflammatory changes and fibrosis, histopathology” value in assay [1] (bleomycin-treated mice, days 14 and 28) was “Both inflammatory changes and fibrosis were decreased”. Also, in assay [1] (setting [2]), the “Lung fibrosis histopathologic score, 5%-95% CI” value is recorded as 1.1-2.9 and the “Lung fibrosis histopathologic score, range” value is recorded as 1.0-3.0.

Values taken from US11993640B2, “Treating inflammatory lung disease” (United States Government as represented by the Department …, priority 2019, dated 2024).
